Experimental data as given in patent US12558343B2, “Medical use of icaritin” (Lunan Pharmaceutical Group Corporation, priority 2020, dated 2026).

Key:
[1] = tested on: hemorrhagic transformation model induced by aspirin combined with cerebral ischemia-reperfusion; assay: Hemorrhagic transformation after cerebral ischemia-reperfusion (MCAO) caused by aspirin, bleeding rate; format: in vivo, ICR mice; conditions: for Number of animals with cerebral hemorrhage: 24 h after MCAO; for Bleeding rate %: model group 85.7
Experimental: 5-week-old ICR male mice were fed to 6-week-old and divided into a control group, a model group, an icaritin-3 mg/kg group, an icaritin-6 mg/kg group, an icaritin-12 mg/kg group, and an icariin-12 mg/kg group according to body weight. From day 1 to day 3 after the grouping, the mice in each icaritin group were separately intragastrically administrated with 3, 6, and 12 mg/kg of icaritin and the mice in the icariin group was intragastrically administrated with 12 mg/kg of icariin once a day, and the mice in other groups were intragastrically administrated with a corresponding vehicle; and except the control group, the mice in other groups were intragastrically administrated with aspirin (100 mg/kg) or clopidogrel (15 mg/kg) once a day at a volume of 10 mL/kg.
On day 3, 10 min after the administration, the mice were anesthetized by intraperitoneal injection of 70 mg/kg of pentobarbital sodium and subjected to a cerebral ischemia-reperfusion (middle cerebral artery occlusion, MCAO) surgery with ischemia for 1 h and reperfusion for 23 h.
24 h after the surgery was an end point of the experiment.
Bleeding rate: the mice were anesthetized by intraperitoneal injection of 70 mg/kg of pentobarbital sodium, a brain tissue was taken out, cerebral hemorrhage was recorded and a bleeding rate of the mice in each group was calculated. Cerebral hemorrhage rate %=number of animals with cerebral hemorrhage/number of surviving animals in each group×100.

[2] = tested on: prolonged bleeding time caused by aspirin; assay: Tail-cut bleeding time in mice, prolonged by aspirin; format: in vivo, ICR mice; conditions: aspirin 20 mg/kg i.g.
Experimental: According to the body weight on the last day of the quarantine, the male and female animals were divided into six groups by a simplified random method, namely, a normal group (C), a model group (V), icaritin low-, medium- and high-dose groups (2, 6, and 18 mg/kg, L, M, H) and a positive control drug group (200 mg/kg of etamsylate, P).
(§1) After 15 min of the modeling, the tails of the mice were cut and bleeding time of each mouse was measured.

[3] = tested on: platelets (activation induced by adenosine diphosphate); assay: Platelet activation induced by adenosine diphosphate, flow cytometry (CD62p/CD61), blood of dosed rats; format: in vivo, SD rats; conditions: for Activation rate of platelets activated by adenosine diphosphate, Basic value / Spontaneous activation rate: before administration; for Spontaneous activation rate: no adenosine diphosphate; for Activation-promoting rate: after vs basic value; for Activation rate of platelets activated by adenosine diphosphate, After administration: 20 min after last administration
Experimental: 0.5 mL of blood was collected from the orbit of the rat and 3.8% sodium citrate was added for anticoagulation (a ratio of blood to anticoagulant was 9:1) to prepare anticoagulated blood. 50 μL of anticoagulated blood was taken from each animal for determination of spontaneous platelet activation rate; and another 50 μL of anticoagulated blood was taken and 50 μL of adenosine diphosphate with a final concentration of 10 μmol was added for activation. 1.0-1.5 μL of each of CD62pPE/Cy7 and CD61PE was added to double-label the 2 anticoagulated blood, CD61 was used to label all the platelets and CD62p was used to label the activated platelets. […] The rats were double-labeled with G2a-PE/Cy7 and G-PE […] as a control. Each tube containing the treated blood was incubated at 4° C. in a dark place for 20 min; and 0.5 mL of 4% paraformaldehyde was added to fix for 10 min. 50 μL of the fixed blood sample was taken and diluted with 1 mL of a diluent, and the diluted sample was analyzed on a flow cytometer. Platelet populations were delineated in a CD61PE/Side Angle Light Scattering (SSC) two-parameter scatterplot, 5,000 platelets were counted, the number of CD61 and CD62p-positive cells was further counted in a CD61/CD62p scatterplot, and a percentage of a positive expression rate of CD62p in an expression rate of CD61 reflected a platelet activation rate (%).
(§2) Twenty-four rats were taken and divided into 3 groups with 8 rats in each group. […] 1.0 mL of blood was collected from the orbits before administration and 20 min after a last administration, wherein 0.5 mL was used for a blood routine examination and 0.5 mL was used to prepare anticoagulated blood. The blood was treated and analyzed on the flow cytometer according to the detection method of platelet activation by flow cytometry. An activation rate of platelets activated by adenosine diphosphate (basic value) before administration and an activation rate of platelets activated by adenosine diphosphate after administration were compared. At the same time, 50 μL of anticoagulated blood was taken from the rats before administration, adenosine diphosphate was not added, and a spontaneous activation rate of the anticoagulated blood of animals was measured using the same method. The animals were fasted for 16-24 h before each blood sampling.

[4] = Blood routine examination of rats before/after icaritin (Efficacy Example 1); format: in vivo, SD rats
Experimental: as §2

[5] = tested on: prolonged bleeding time caused by heparin sodium; assay: Tail-cut bleeding time in mice, prolonged by heparin sodium; format: in vivo, ICR mice; conditions: heparin sodium 150 U/kg i.v.
Description: 72 ICR mice aged 5-6 weeks, weighing 19-21 g, and half male and half female were selected. The mice were quarantined for 7 days after entering a laboratory and healthy mice were selected as test animals. The mice were weighed on first and last days of quarantine. According to the body weight on the last day of the quarantine, the male and female animals were divided into six groups by a simplified random method, namely, a normal group (C), a model group (V), low-, medium- and high-dose icaritin groups (2, 6, and 18 mg/kg, L, M, H) and a positive control drug group (200 mg/kg of etamsylate, P).
as §1

[6] = group H, 18 mg/kg i.g. once a day 5 days
[7] = group L, 2 mg/kg i.g. once a day 5 days, tail cut 15 min after modeling
[8] = group M, 6 mg/kg i.g. once a day 5 days

Concentration of hemoglobin ([4]; 3 mg/kg i.g. 3 days): 180500 ± 11200 µg/mL
Number of erythrocytes ([4]; 3 mg/kg i.g. 3 days): 7.213 ± 0.554 10^12/L
Number of leukocytes ([4]; 3 mg/kg i.g. 3 days): 1.832 ± 0.154 10^9/L
Number of platelets ([4]; 3 mg/kg i.g. 3 days): 1124 ± 209 10^9/L
Concentration of hemoglobin ([4]; 6 mg/kg i.g. 3 days): 179000 ± 9200 µg/mL
Number of erythrocytes ([4]; 6 mg/kg i.g. 3 days): 6.783 ± 0.871 10^12/L
Number of leukocytes ([4]; 6 mg/kg i.g. 3 days): 1.653 ± 0.421 10^9/L
Number of platelets ([4]; 6 mg/kg i.g. 3 days): 1397 ± 143 10^9/L
Concentration of hemoglobin ([4]; 18 mg/kg i.g. 3 days): 181600 ± 9500 µg/mL
Number of erythrocytes ([4]; 18 mg/kg i.g. 3 days): 7.235 ± 0.656 10^12/L
Number of leukocytes ([4]; 18 mg/kg i.g. 3 days): 1.761 ± 0.335 10^9/L
Number of platelets ([4]; 18 mg/kg i.g. 3 days): 1249 ± 166 10^9/L
SMILES: COc1ccc(-c2oc3c(CC=C(C)C)c(O)cc(O)c3c(=O)c2O)cc1 [Icaritin]
Number of animals with cerebral hemorrhage ([1]; 3 mg/kg i.g. Day 1-3 with aspirin 100 mg/kg, of 8 animals): 3
Bleeding rate % ([1]; 3 mg/kg i.g. Day 1-3 with aspirin 100 mg/kg): 37.5%
Number of animals with cerebral hemorrhage ([1]; 6 mg/kg i.g. Day 1-3 with aspirin 100 mg/kg, of 8 animals): 2
Bleeding rate % ([1]; 6 mg/kg i.g. Day 1-3 with aspirin 100 mg/kg): 25.0%
Number of animals with cerebral hemorrhage ([1]; 12 mg/kg i.g. Day 1-3 with aspirin 100 mg/kg, of 9 (icaritin) or 8 (icariin) animals): 2
Bleeding rate % ([1]; 12 mg/kg i.g. Day 1-3 with aspirin 100 mg/kg): 22.2%
Bleeding time [2, 6]: 16.7 ± 7.2^$ $ & min
Bleeding time [2, 7]: 28.4 ± 9.8^$ min
Bleeding time [2, 8]: 24.7 ± 7.3^$ min
Activation rate of platelets activated by adenosine diphosphate, Basic value ([3]; 3 mg/kg group): 44.02 ± 11.21%
Spontaneous activation rate ([3]; 3 mg/kg group): 0.60 ± 0.11%
Activation-promoting rate ([3]; 3 mg/kg i.g. 3 days): 32.12%
Activation rate of platelets activated by adenosine diphosphate, After administration ([3]; 3 mg/kg i.g. once a day 3 days): 58.16 ± 13.41%
Activation rate of platelets activated by adenosine diphosphate, Basic value ([3]; 6 mg/kg group): 47.19 ± 13.12%
Spontaneous activation rate ([3]; 6 mg/kg group): 0.59 ± 0.20%
Activation-promoting rate ([3]; 6 mg/kg i.g. 3 days): 38.22%
Activation rate of platelets activated by adenosine diphosphate, After administration ([3]; 6 mg/kg i.g. once a day 3 days): 65.23 ± 16.78%
Activation rate of platelets activated by adenosine diphosphate, Basic value ([3]; 18 mg/kg group): 50.34 ± 19.22%
Spontaneous activation rate ([3]; 18 mg/kg group): 0.61 ± 0.14%
Activation-promoting rate ([3]; 18 mg/kg i.g. 3 days): 55.84%
Activation rate of platelets activated by adenosine diphosphate, After administration ([3]; 18 mg/kg i.g. once a day 3 days): 78.45 ± 20.22%
Bleeding time [5, 6]: 15.9 ± 6.6^$ $ & min
Bleeding time [5, 7]: 26.4 ± 8.8^$ min
Bleeding time [5, 8]: 22.7 ± 9.1^$ min
